Assays:
Details in all cases: 72 h
Caco-2 [1] = assay: relative viability EC50 (midpoint between 100% and the lowest measured viability); higher = less toxic
U2OS [2] = assay: as above
Vero E6 [3] = assay: as above
HepG2 [4] = assay: as above
Calu-3 [5] = assay: as above
Caco-2 [6] = assay: drug sensitivity score (DSS) for viability; higher = more toxic; extreme values may be limits of the assay
U2OS [7] = assay: as above
Vero E6 [8] = assay: as above
HepG2 [9] = assay: as above
Calu-3 [10] = assay: as above
Caco-2 [11] = assay: cell viability relative to DMSO; higher = less toxic
U2OS [12] = assay: as above
Vero E6 [13] = assay: as above
HepG2 [14] = assay: as above
Calu-3 [15] = assay: as above

Row | Structure (SMILES) | relative viability EC50 (Caco-2 [1]) | relative viability EC50 (U2OS [2]) | relative viability EC50 (Vero E6 [3]) | relative viability EC50 (HepG2 [4]) | relative viability EC50 (Calu-3 [5]) | drug sensitivity score (Caco-2 [6]) | drug sensitivity score (U2OS [7]) | drug sensitivity score (Vero E6 [8]) | drug sensitivity score (HepG2 [9]) | drug sensitivity score (Calu-3 [10]) | cell viability (Caco-2 [11]; 1 nM) | cell viability (Caco-2 [11]; 10 nM) | cell viability (Caco-2 [11]; 100 nM) | cell viability (Caco-2 [11]; 1000 nM) | cell viability (Caco-2 [11]; 10000 nM) | cell viability (U2OS [12]; 1 nM) | cell viability (U2OS [12]; 10 nM) | cell viability (U2OS [12]; 100 nM) | cell viability (U2OS [12]; 1000 nM) | cell viability (U2OS [12]; 10000 nM) | cell viability (Vero E6 [13]; 1 nM) | cell viability (Vero E6 [13]; 10 nM) | cell viability (Vero E6 [13]; 100 nM) | cell viability (Vero E6 [13]; 1000 nM) | cell viability (Vero E6 [13]; 10000 nM) | cell viability (HepG2 [14]; 1 nM) | cell viability (HepG2 [14]; 10 nM) | cell viability (HepG2 [14]; 100 nM) | cell viability (HepG2 [14]; 1000 nM) | cell viability (HepG2 [14]; 10000 nM) | cell viability (Calu-3 [15]; 1 nM) | cell viability (Calu-3 [15]; 10 nM) | cell viability (Calu-3 [15]; 100 nM) | cell viability (Calu-3 [15]; 1000 nM) | cell viability (Calu-3 [15]; 10000 nM)
1 | CN1C(C(=O)Nc2ccccn2)=C(O)c2sccc2S1(=O)=O [tenoxicam] | > 10 µM | > 10 µM | > 10 µM | > 10 µM | > 10 µM | 0 | 0 | 0 | 0 | 0 | 98% | 102% | 96.2% | 98.6% | 92.6% | 93.3% | 94.4% | 93.1% | 97% | 93.1% | 98.5% | 96.2% | 103% | 98.7% | 99.8% | 94.9% | 96% | 96.5% | 88.5% | 101% | 99.3% | 102% | 90.7% | 106% | 98.2%
2 | CCN(CC)C(=O)N[C@H]1C=C2c3cccc4[nH]cc(c34)C[C@H]2N(C)C1 [lisuride] | > 10 µM | > 10 µM | > 10 µM | > 10 µM | > 10 µM | 0 | 0 | 0 | 0 | 0 | 102% | 81.3% | 101% | 115% | 100% | 99.9% | 100% | 100% | 93.4% | 96% | 97.7% | 106% | 93.5% | 102% | 106% | 87.7% | 90% | 101% | 97.4% | 96.3% | 96% | 88.6% | 104% | 85% | 105%
3 | COc1cc2c(c(OC)c1OC)-c1c(cc3c(c1OC)OCO3)CC(C)C(C)C2 (stereo not given) [schisandrin-B] | > 10 µM | > 10 µM | > 10 µM | > 10 µM | > 10 µM | 0.8 | 0 | 0 | 0 | 0 | 97.5% | 99.5% | 98.9% | 100% | 77.4% | 101% | 91.8% | 102% | 97.3% | 93.5% | 96% | 98.5% | 93.4% | 96.1% | 101% | 89.1% | 99.3% | 95.8% | 105% | 101% | 96.3% | 83.3% | 94.5% | 105% | 90.1%
4 | C=C(c1ccc(C(=O)O)cc1)c1cc2c(cc1C)C(C)(C)CCC2(C)C [bexarotene] | > 10 µM | > 10 µM | > 10 µM | > 10 µM | > 10 µM | 0.9 | 0 | 0 | 0 | 0 | 106% | 90.1% | 95.2% | 86.4% | 86.3% | 94% | 97.9% | 102% | 95% | 92.7% | 100% | 102% | 96.6% | 94.3% | 98% | 94.9% | 96.8% | 107% | 99.7% | 112% | 92.5% | 95.8% | 102% | 96.7% | 103%
5 | O=C(NC(=O)c1c(F)cccc1Cl)NC1c2ccccc2-c2ccccc21 [TMN-355] | > 10 µM | > 10 µM | > 10 µM | > 10 µM | > 10 µM | 0 | 0 | 0 | 0 | 0 | 93.1% | 93.7% | 86.8% | 92.1% | 104% | 97.4% | 99.9% | 96.9% | 94.2% | 102% | 100% | 91.9% | 104% | 98.4% | 106% | 97.4% | 103% | 101% | 109% | 108% | 88% | 93.9% | 108% | 91.7% | 97.6%
6 | OC[C@@H](O)[C@@H](O)[C@H](O)[C@@H](O)CO [sorbitol] | > 10 µM | > 10 µM | > 10 µM | > 10 µM | > 10 µM | 0 | 0 | 0.3 | 0 | 0 | 96.4% | 105% | 100% | 109% | 93.6% | 104% | 99.5% | 96.6% | 101% | 95.5% | 102% | 99.9% | 103% | 88.8% | 92.2% | 95.3% | 84% | 94.7% | 94.8% | 82.3% | 101% | 98% | 98.3% | 102% | 101%
7 | CC(C)(N)Cc1ccccc1 [phentermine] | > 10 µM | > 10 µM | > 10 µM | > 10 µM | > 10 µM | 0 | 0 | 0 | 0 | 0 | 108% | 108% | 99.8% | 96.3% | 95.8% | 97.4% | 96% | 100% | 95.5% | 103% | 102% | 92.1% | 102% | 100% | 96.3% | 98.5% | 98.2% | 109% | 92.3% | 94.8% | 93.3% | 81% | 97.4% | 104% | 98.4%

— the supplement of paper PMC13380429
